# Assay results as given in patent US8415342B2, “Besifloxacin ophthalmic composition for the treatment or control of infection” (Bausch & Lomb Incorporated, priority 2008, dated 2013).
# pIC50: −log10 of the molar value. Values joined by “and” are separate entries in the source; they are usually repeats but may differ in a detail not shown here. Equal values may be shown once.
# Assays:
# [1] = Nonclinical ocular and systemic pharmacokinetics after topical ocular administration; assay type: in vivo; conditions: for peak plasma besifloxacin concentration, on average: topical ocular administration
# Source text: Results from the nonclinical ocular pharmacokinetic (PK) studies indicate that topical ocular administration of besifloxacin ophthalmic suspension, 0.6%, is associated with rapid absorption and distribution of besifloxacin into ocular tissues. […] However, based on the extensive ocular safety data available for besifloxacin, no adverse consequences are expected.
# Systemic exposure to besifloxacin following topical ocular administration was low, with peak plasma besifloxacin concentrations of 7.6 and 9.2 ng/mL, respectively, on average.
# [2] = test system: baseline bacterial conjunctival pathogens; test: Integrated species-specific microbial eradication, Studies 373, 433, 434; assay type: in vivo, human; conditions: for Microbial eradication rate / Microbial eradication rate (eradicated/total): culture-confirmed, as-treated population (Global); for microbial eradication rate, all species combined: Studies 373, 433, 434 integrated, global (US and Asia)
# [3] = target: T1, S. pneumoniae topoisomerase IV (Streptococcus pneumoniae serotype 4, UniProt P72525+Q59961); test: biochemical; assay type: biochemical
# T1 sequence (P72525 1-823): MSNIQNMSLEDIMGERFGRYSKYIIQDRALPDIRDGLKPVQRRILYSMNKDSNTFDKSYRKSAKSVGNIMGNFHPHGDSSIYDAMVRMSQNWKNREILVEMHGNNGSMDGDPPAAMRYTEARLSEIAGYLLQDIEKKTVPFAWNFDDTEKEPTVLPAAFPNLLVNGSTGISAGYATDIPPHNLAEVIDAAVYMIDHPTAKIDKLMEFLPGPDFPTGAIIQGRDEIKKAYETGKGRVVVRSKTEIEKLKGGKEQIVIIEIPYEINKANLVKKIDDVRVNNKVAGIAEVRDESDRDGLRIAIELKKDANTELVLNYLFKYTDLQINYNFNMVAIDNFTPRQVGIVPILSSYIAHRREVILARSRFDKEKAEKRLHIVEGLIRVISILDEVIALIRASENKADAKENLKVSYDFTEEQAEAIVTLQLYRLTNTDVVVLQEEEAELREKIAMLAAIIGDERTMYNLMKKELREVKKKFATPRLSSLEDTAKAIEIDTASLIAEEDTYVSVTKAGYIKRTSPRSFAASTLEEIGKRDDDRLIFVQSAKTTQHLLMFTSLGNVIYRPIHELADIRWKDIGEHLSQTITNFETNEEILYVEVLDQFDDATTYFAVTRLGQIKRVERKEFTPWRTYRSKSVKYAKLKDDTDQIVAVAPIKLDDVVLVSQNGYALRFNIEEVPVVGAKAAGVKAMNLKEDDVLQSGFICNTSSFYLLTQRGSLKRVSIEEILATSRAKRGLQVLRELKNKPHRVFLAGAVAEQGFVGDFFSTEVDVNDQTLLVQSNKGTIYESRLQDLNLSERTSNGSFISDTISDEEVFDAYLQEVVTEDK
# T1 sequence (Q59961 1-647): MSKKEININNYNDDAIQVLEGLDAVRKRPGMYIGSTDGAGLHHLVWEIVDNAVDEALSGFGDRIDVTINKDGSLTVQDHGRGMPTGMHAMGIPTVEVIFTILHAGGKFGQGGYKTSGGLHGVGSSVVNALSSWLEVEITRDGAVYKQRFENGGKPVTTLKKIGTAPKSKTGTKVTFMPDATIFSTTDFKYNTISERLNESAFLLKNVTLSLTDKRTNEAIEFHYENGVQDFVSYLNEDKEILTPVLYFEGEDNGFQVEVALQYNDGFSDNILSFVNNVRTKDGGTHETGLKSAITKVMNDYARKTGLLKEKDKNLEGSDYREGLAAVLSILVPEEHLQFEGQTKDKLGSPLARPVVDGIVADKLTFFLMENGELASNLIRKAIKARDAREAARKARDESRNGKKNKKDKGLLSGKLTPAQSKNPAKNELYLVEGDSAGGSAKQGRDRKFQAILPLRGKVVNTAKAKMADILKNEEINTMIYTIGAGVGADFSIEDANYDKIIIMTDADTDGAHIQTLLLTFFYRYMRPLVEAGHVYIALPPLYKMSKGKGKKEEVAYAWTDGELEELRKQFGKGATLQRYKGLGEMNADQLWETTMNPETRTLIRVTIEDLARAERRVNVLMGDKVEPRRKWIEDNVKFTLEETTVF
# E. coli topoisomerase IV = E. coli topoisomerase IV (Escherichia coli, UniProt P0AFI2+P20083); test: Cleavable complex stimulation (CC25), topoisomerase IV; assay type: biochemical; conditions: E. coli enzymes; concentration that produces 25% linearization of the DNA
# Chain of E. coli topoisomerase IV (P0AFI2 whole entry): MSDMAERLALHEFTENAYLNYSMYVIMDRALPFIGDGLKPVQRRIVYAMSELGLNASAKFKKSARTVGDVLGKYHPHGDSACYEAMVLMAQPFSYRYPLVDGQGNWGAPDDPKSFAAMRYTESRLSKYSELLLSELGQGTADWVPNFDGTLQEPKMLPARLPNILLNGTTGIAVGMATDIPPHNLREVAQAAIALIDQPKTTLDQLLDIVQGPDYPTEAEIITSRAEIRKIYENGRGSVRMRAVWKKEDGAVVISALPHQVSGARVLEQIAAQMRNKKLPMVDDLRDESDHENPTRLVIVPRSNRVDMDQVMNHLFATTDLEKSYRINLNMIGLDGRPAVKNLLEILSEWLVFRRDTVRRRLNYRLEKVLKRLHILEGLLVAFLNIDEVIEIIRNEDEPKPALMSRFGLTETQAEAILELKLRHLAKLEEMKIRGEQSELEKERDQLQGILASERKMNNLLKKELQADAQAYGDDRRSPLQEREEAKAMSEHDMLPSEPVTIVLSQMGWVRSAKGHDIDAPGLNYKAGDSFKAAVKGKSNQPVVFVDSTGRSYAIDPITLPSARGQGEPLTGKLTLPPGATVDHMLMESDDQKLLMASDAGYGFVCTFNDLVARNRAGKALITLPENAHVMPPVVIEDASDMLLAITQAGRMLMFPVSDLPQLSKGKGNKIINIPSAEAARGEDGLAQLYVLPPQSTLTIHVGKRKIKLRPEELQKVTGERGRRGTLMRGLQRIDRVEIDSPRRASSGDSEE
# Chain of E. coli topoisomerase IV (P20083 whole entry): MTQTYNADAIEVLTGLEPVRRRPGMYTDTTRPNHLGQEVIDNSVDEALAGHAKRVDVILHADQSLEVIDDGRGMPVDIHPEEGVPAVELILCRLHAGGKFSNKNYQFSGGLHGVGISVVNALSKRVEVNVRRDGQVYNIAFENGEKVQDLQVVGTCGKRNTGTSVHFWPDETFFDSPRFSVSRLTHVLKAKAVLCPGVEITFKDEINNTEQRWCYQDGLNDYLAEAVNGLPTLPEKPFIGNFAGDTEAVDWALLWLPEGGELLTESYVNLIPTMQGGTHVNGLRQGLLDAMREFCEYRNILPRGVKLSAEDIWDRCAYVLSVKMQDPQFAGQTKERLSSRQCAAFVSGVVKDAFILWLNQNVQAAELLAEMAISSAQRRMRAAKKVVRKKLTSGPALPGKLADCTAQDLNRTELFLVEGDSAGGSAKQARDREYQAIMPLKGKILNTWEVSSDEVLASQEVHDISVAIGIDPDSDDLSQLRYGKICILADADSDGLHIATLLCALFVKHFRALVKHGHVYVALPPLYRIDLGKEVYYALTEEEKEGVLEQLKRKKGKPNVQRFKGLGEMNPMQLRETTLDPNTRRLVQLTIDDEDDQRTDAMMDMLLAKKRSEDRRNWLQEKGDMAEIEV
# [4] = C. pseudodiphtheriticum, Visit 2
# [5] = C. pseudodiphtheriticum, Visit 3
# [6] = CDC coryneform group G, Visit 2
# [7] = CDC coryneform group G, Visit 3
# [8] = S. mitis group (only isolates identified as S. mitis or S. mitis group), Visit 2
# [9] = S. mitis group (only isolates identified as S. mitis or S. mitis group), Visit 3
structure (smiles),measurement,setting,value
"N[C@@H]1CCCCN(c2c(F)cc3c(=O)c(C(=O)O)cn(C4CC4)c3c2Cl)C1 [Besifloxacin, (R)-(+)-(3-amino-2,3,4,5,6,7-hexahydro-1H-azepin-1-yl)-8-chloro-1-cyclopropyl-6-fluoro-1,4,-dihydro-4-oxo-3-quinolinecarboxylic acid]",Cmax,"[1]; non-excretory organs, topical or ocular, nonclinical, repeated (BID, TID, QID) topical ocular administration",< 25 ng/g
same,half-life,"[1]; ocular tissues, topical or ocular, nonclinical, topical ocular 0.6% suspension, read-out: apparent half-life of elimination from ocular tissues",> 5 h
same,"peak plasma besifloxacin concentration, on average",[1]; first of two groups not named ('respectively'),7.6 ng/mL
same,"peak plasma besifloxacin concentration, on average",[1]; second of two groups not named ('respectively'),9.2 ng/mL
same,Microbial eradication rate,"[2]; All species, Visit 2",(92.2%)
same,Microbial eradication rate (eradicated/total),"[2]; All species, Visit 2",606/656
same,Microbial eradication rate,"[2]; All species, Visit 3",(88.4%)
same,Microbial eradication rate (eradicated/total),"[2]; All species, Visit 3",580/656
same,Microbial eradication rate,[2]; [4],(100.0%)
same,Microbial eradication rate (eradicated/total),[2]; [4],6/6
same,Microbial eradication rate,[2]; [5],(100.0%)
same,Microbial eradication rate (eradicated/total),[2]; [5],6/6
same,Microbial eradication rate,"[2]; C. striatum, Visit 2",(100.0%)
same,Microbial eradication rate (eradicated/total),"[2]; C. striatum, Visit 2",5/5
same,Microbial eradication rate,"[2]; C. striatum, Visit 3",(100.0%)
same,Microbial eradication rate (eradicated/total),"[2]; C. striatum, Visit 3",5/5
same,Microbial eradication rate,[2]; [6],(93.8%)
same,Microbial eradication rate (eradicated/total),[2]; [6],15/16
same,Microbial eradication rate,[2]; [7],(93.8%)
same,Microbial eradication rate (eradicated/total),[2]; [7],15/16
same,Microbial eradication rate,"[2]; Gram-negative, Visit 2",(92.3%)
same,Microbial eradication rate (eradicated/total),"[2]; Gram-negative, Visit 2",193/209
same,Microbial eradication rate,"[2]; Gram-negative, Visit 3",(90.0%)
same,Microbial eradication rate (eradicated/total),"[2]; Gram-negative, Visit 3",188/209
same,Microbial eradication rate,"[2]; Gram-positive, Visit 2",(92.2%)
same,Microbial eradication rate (eradicated/total),"[2]; Gram-positive, Visit 2",412/447
same,Microbial eradication rate,"[2]; Gram-positive, Visit 3",(87.7%)
same,Microbial eradication rate (eradicated/total),"[2]; Gram-positive, Visit 3",392/447
same,Microbial eradication rate,"[2]; H. influenzae, Visit 2",(91.0%)
same,Microbial eradication rate (eradicated/total),"[2]; H. influenzae, Visit 2",152/167
same,Microbial eradication rate,"[2]; H. influenzae, Visit 3",(88.6%)
same,Microbial eradication rate (eradicated/total),"[2]; H. influenzae, Visit 3",148/167
same,Microbial eradication rate,"[2]; M. lacunata, Visit 2",(100.0%)
same,Microbial eradication rate (eradicated/total),"[2]; M. lacunata, Visit 2",5/5
same,Microbial eradication rate,"[2]; M. lacunata, Visit 3",(80.0%)
same,Microbial eradication rate (eradicated/total),"[2]; M. lacunata, Visit 3",4/5
same,Microbial eradication rate,"[2]; S. aureus, Visit 2",(87.1%)
same,Microbial eradication rate (eradicated/total),"[2]; S. aureus, Visit 2",81/93
same,Microbial eradication rate,"[2]; S. aureus, Visit 3",(83.9%)
same,Microbial eradication rate (eradicated/total),"[2]; S. aureus, Visit 3",78/93
same,Microbial eradication rate,"[2]; S. epidermidis, Visit 2",(94.0%)
same,Microbial eradication rate (eradicated/total),"[2]; S. epidermidis, Visit 2",47/50
same,Microbial eradication rate,"[2]; S. epidermidis, Visit 3",(88.0%)
same,Microbial eradication rate (eradicated/total),"[2]; S. epidermidis, Visit 3",44/50
same,Microbial eradication rate,"[2]; S. hominis, Visit 2",(83.3%)
same,Microbial eradication rate (eradicated/total),"[2]; S. hominis, Visit 2",5/6
same,Microbial eradication rate,"[2]; S. hominis, Visit 3",(100.0%)
same,Microbial eradication rate (eradicated/total),"[2]; S. hominis, Visit 3",6/6
same,Microbial eradication rate,"[2]; S. lugdunensis, Visit 2",(100.0%)
same,Microbial eradication rate (eradicated/total),"[2]; S. lugdunensis, Visit 2",5/5
same,Microbial eradication rate,"[2]; S. lugdunensis, Visit 3",(100.0%)
same,Microbial eradication rate (eradicated/total),"[2]; S. lugdunensis, Visit 3",5/5
same,Microbial eradication rate,[2]; [8],(89.5%)
same,Microbial eradication rate (eradicated/total),[2]; [8],17/19
same,Microbial eradication rate,[2]; [9],(84.2%)
same,Microbial eradication rate (eradicated/total),[2]; [9],16/19
same,Microbial eradication rate,"[2]; S. oralis, Visit 2",(90.9%)
same,Microbial eradication rate (eradicated/total),"[2]; S. oralis, Visit 2",10/11
same,Microbial eradication rate,"[2]; S. oralis, Visit 3",(72.7%)
same,Microbial eradication rate (eradicated/total),"[2]; S. oralis, Visit 3",8/11
same,Microbial eradication rate,"[2]; S. pneumoniae, Visit 2",(92.8%)
same,Microbial eradication rate (eradicated/total),"[2]; S. pneumoniae, Visit 2",142/153
same,Microbial eradication rate,"[2]; S. pneumoniae, Visit 3",(86.3%)
same,Microbial eradication rate (eradicated/total),"[2]; S. pneumoniae, Visit 3",132/153
same,Microbial eradication rate,"[2]; S. salivarius, Visit 2",(100.0%)
same,Microbial eradication rate (eradicated/total),"[2]; S. salivarius, Visit 2",5/5
same,Microbial eradication rate,"[2]; S. salivarius, Visit 3",(80.0%)
same,Microbial eradication rate (eradicated/total),"[2]; S. salivarius, Visit 3",4/5
same,"microbial eradication rate, all species combined",[2]; Visit 2,92.2%
same,"microbial eradication rate, all species combined",[2]; Visit 3,88.4%
same,pIC50,"[3]; IC50 Topo IV, S. pneumoniae enzymes",6.00 and 5.99
same,potency relative to ciprofloxacin and moxifloxacin (catalytic inhibition and cleavable complex stimulation),[3]; S. pneumoniae topoisomerase IV,2.5- to 5.0 fold
same,CC25 Topo IV,E. coli topoisomerase IV,1.4 μM and 0.6 μg/mL
